This is an account of results in publication PMC3739823, “Structural Guided Scaffold Phage Display Libraries as a Source of Bio-Therapeutics” (PLoS ONE, 2013).

No end group written: not given here.

The subject of one data set is recombinant αvβ6. Description: Monoclonal scFv screening ELISA / binding to immobilised recombinant αvβ6. The settings on record: specific binding to recombinant αvβ6, summary statement. As for the experimental part: Figure 2 Screening of phage clones isolated from the α-helix & 3_10-helix libraries. A) Monoclonal scFv screening ELISA testing 96 clones in each library. Bacterial supernatants were added to 5 µg/ml recombinant αvβ6 immobilized onto ELISA plate and then probed with mouse anti-Myc antibody followed by anti-mouse-HRP. B) Clones with unique sequences were screened for binding cellular αvβ6 by flow cytometry. […] For clarity the relevant αvβ6-specific mouse monoclonal antibody 10D5 (grey) and the negative control IgG (black) histograms are also shown in each plot. […] TEXT PRINTED IN THE PICTURE: (C) D25: 30kDa | (C) D34: 30kDa
The α-helix and 3_10 libraries were each rescued separately KM13 helper phage as described previously. For selection, we used in parallel each library separately as well as mixed alpha helix and 3_10 libraries. The initial phage selection was performed using immobilised recombinant αvβ6 protein as described previously, [29] and http://www.lifesciences.sourcebioscience.com/ media/143421/tomlinsonij.pdf. After two rounds of selection on immobilised αvβ6 we then selected the libraries on cell-expressed αvβ6 using A375Pβ6 and A375PPuro cell lines, for αvβ6-positive and αvβ6-negative selection, respectively, [22]. First line screening were done by ELISA using 5 µg/ml immobilised recombinant αvβ6 as described.
(In an ELISA, binding on a coated surface is turned into a signal by an enzyme label.)

For data set [1], the system named is A375Pβ6 cells (cellular αvβ6). Description: Flow cytometry binding to αvβ6-expressing cells. The class given is cell-based. The settings on record: for binding to αvβ6-expressing cells: flow cytometry, dose dependent binding analysis, 0.1 or 1 uM, 1 hr on ice, MFI. Here is the method:
(§1) The adherent melanoma cell lines A375Pβ6 and A375Ppuro, described previously were cultured in Dulbecco's Modified Eagles' Medium (DMEM) supplemented with 10% Foetal Calf Serum (FCS). The human oral squamous cell carcinoma VB6, which was engineered to express high levels of αvβ6, was grown in Keratinocyte Growth Medium as described.
(§2) Purified scFv were tested for specificity for αvβ6 by flow cytometry using the isogenic pairs of cell lines, A375Pβ6 and A375Ppuro, or DX3β6 and DX3puro. Each pair expresses similar levels of four RGD-binding integrins (αvβ3, αvβ5, αvβ8, α5β1) but only A375Pβ6 and DX3β6 express αvβ6 [14], [22], [30]. Briefly, cells were detached with trypsin/EDTA, rinsed twice in ice-cold wash buffer (0.1% BSA/DMEM/0.1% NaN3) and approximately 2×10^5 cells re-suspended in 50 µl of wash buffer per sample. In between all incubation steps, all samples were washed twice with wash buffer unless otherwise stated. Cells were incubated on ice for 1 hr with 0.1 or 1 uM purified scFv of peptide, washed twice. For scFv, cells were then incubated for 1 hr on ice with mouse anti-Myc antibody (clone 9E10, Santa Cruz) at 1∶100. After washing, bound antibody was detected with anti-mouse IgG-Alexaflour 488 (1∶250 for 1 h; Molecular Probes), on ice. […] Cells were analysed using the FACSCalibur (Beckton Dickinson). Cell expression of αvβ6 integrin was detected with mouse monoclonal antibody (clone 10D5, 10 µg/ml; Millipore) and non-specific (control) binding with non-immune class matched IgG.
A general note: A flow cytometer gives signals particle by particle.

A further data set relates to A375Ppuro cells. The data set can be described thus: Flow cytometry binding to αvβ6-negative cells. The settings on record: for binding to αvβ6-negative cells: flow cytometry, A375Ppuro (αvβ3, αvβ5, αvβ8, α5β1 positive), dose dependent binding analysis, 0.1 or 1 uM; for binding to αvβ6-negative cells (Figure S1): biotinylated peptide at 1 uM, A375Ppuro, rabbit anti-biotin IgG then anti-rabbit IgG-Alexafluor 488. The class given is cell-based. As for the experimental part: as §1, §2
Supplementary file pone.0070452.s001.tif: Figure S1 A375Ppuro cells were incubated with biotinylated D25p or D34p at 1 uM. Bound peptide was detected with rabbit anti-biotin IgG (1∶200), followed by anti-rabbit IgG-Alexafluor 488 (1∶250; Molecular Probes). […] Black histograms represent controls where peptides were omitted. (TIF) Click here for additional data file.

The test system of a further data set is cellular αvβ6. The data set can be described thus: Inhibition of A20FMDV2 binding to cellular αvβ6 (flow cytometry). In kind it is cell-based. Particulars: 0.1 and 1.0 µM, 10 min pre-incubation, 40 min with 10 nM biotinylated A20FMDV2; % of MFI without inhibitor.
For data set [2], the system named is αvβ6-dependent adhesion of carcinoma cells to immobilised fibronectin. Description: αvβ6-dependent adhesion to fibronectin (Picogreen adhesion assay). The class given is cell-based. Particulars: for inhibition of αvβ6-dependent adhesion to fibronectin: fibronectin 10 ug/ml, 30 min at 37°C, quadruplicate, repeated at least 2-3 times. Here is the method:
All adhesion assays were performed in quadruplicate and repeated at least 2–3 times. In a 96-well plate format, test wells were coated with Fibronectin (10 ug/ml/PBS) and negative control wells were coated with 0.1% BSA (bovine serum albumin)/PBS. After incubation at 37°C for 1 hour, plates were washed in PBS twice and blocked with 0.1% BSA/PBS for 30 mins at 37°C. Following a PBS rinse, cells were seeded into the wells, the plate resting on ice to avoid dehydration and to ensure an initial uniform temperature for the experiment. Purified scFv or peptide was added (25 ul) to the wells at the desired concentrations, before adding 1.5×10^4 cells (25 ul) per well. In some experiments, cells (1.5×10^4) were pre-treated with β1 blocking antibody AIIB2 at 10 ug/ml before seeding into test wells to block the β1-dependent fibronectin adhesion. To determine percentage adhesion, standard curves were generated by plating 0–2.5×10^4 cells in separate wells. After incubating plates at 37°C for 30′ plates were washed twice in 1 mM CaCl2/0.5 mM MgCl2/PBS and transferred into −80°C for 15 mins. Adherent cells were quantified using a Picogreen kit (Invitrogen) and analysed on a fluorescence reader (FLUOstar Optima, BMG Labtech Ltd, Bucks, UK).

The nature of data set [3]: Size-exclusion chromatography (FPLC) of purified scFv.
A further data set relates to αvβ6-negative cells. Description: Internalisation assay, αvβ6-negative cells (confocal microscopy). Particulars: scFv 4 uM or biotinylated peptide 100 nM, 37°C.
The subject of the next data set is αvβ6-expressing cells. Description: Internalisation assay, αvβ6-expressing cells (confocal microscopy). Particulars: for cellular internalisation in αvβ6-expressing cells: scFv 4 uM or biotinylated peptide 100 nM, confocal microscopy; for cellular internalisation in αvβ6-expressing cells / nuclear localisation / time of efficient internalisation: 37°C; for nuclear localisation / time of efficient internalisation: biotinylated peptide 100 nM.

Regarding “D25scFv: human scFv clone with synthetic VH-CDR3 encoding RGD α-helix, EP RGDLRTLAAREKRNFNETLAR LQEKGI”, the “binding to recombinant αvβ6” value with recombinant αvβ6 was “specific binding to recombinant and cellular αvβ6”. In data set [1] (discussion statement), the “comparison of binding to cellular αvβ6, D34scFv versus D25scFv” value is on record as “no difference in binding”. Also, the “binding to αvβ6-expressing cells” value in data set [1] is listed as “αvβ6-specific binding to A375Pβ6 cells”. For the same substance, the “binding to cellular αvβ6, flow cytometry verification” value in data set [1] (scFv at 100, 10 and 1 µg/ml) is on record as “Binding to cellular αvβ6”. Also, the “binding to αvβ6-negative cells” value in the data set on A375Ppuro cells is “not A375Ppuro”. Further, in the data set with cellular αvβ6, the “inhibition of A20FMDV2 binding to cellular αvβ6” value (shortened to “inhibition of A20FMDV2 binding”) was “dose-dependent inhibition”. The “inhibition of αvβ6-dependent adhesion to fibronectin” value (from here on “inhibition … to fibronectin”) in data set [2] is recorded as “significant concentration-dependent inhibition”. Further, the “comparison of adhesion inhibition, D25scFv vs D34scFv” value in data set [2] (p>0.05) is on record as “similarly inhibited”. In addition, the “size-exclusion lower peaks elution volume” value in data set [3] (HiPrep 16/60 sephacryl S-200, PBS, 0.3 ml/min, 280 nm, scFv dimers and tetramers) fell in the range of 45 to 60 mL. For the same substance, the “size-exclusion major peak, apparent molecular weight” value in data set [3] (HiPrep 16/60 sephacryl S-200, PBS, calibration curve) was 30 kDa. Moreover, in data set [3] (lower peaks at 45–60 ml, PBS), the “oligomerisation by size-exclusion chromatography” value was “scFv dimers and tetramers”. The “cellular internalisation in αvβ6-negative cells” value in the data set with αvβ6-negative cells was “not in αvβ6-negative cells”. Further, the “cellular internalisation in αvβ6-expressing cells” value in the data set with αvβ6-expressing cells is listed as “cellular internalisation in αvβ6-expressing cells”. Also, the “cellular localisation at 0 minutes” value with αvβ6-expressing cells (scFv 4 uM, 0 minutes, αvβ6-expressing cells) is reported as “localised at the cell surface”. Besides, the “cellular localisation at 45 minutes” value in the data set on αvβ6-expressing cells (scFv 4 uM, 37°C for 45 minutes, αvβ6-expressing cells) was “localised within the cell cytoplasm and nucleus”.

Regarding “EP RGDLRTLAAREKRNFNETLAR LQEKGI [D25p, VH-CDR3 derived peptide of D25scFv, 29 amino-acids]”, the “binding to recombinant αvβ6” value in the data set with recombinant αvβ6 was “specific binding to recombinant and cellular αvβ6”. For the same substance, the “binding to αvβ6-expressing cells” value in data set [1] is recorded as “αvβ6-specific binding to A375Pβ6 cells”. The “binding to αvβ6-negative cells” value in the data set on A375Ppuro cells was “not A375Ppuro”. The “inhibition of A20FMDV2 binding” value in the data set with cellular αvβ6 is reported as “dose-dependent inhibition”. In addition, the “comparison of inhibition of αvβ6-cellular function, D25p vs D34p” value in data set [2] (discussion statement) was “more efficient inhibitor of αvβ6-cellular function than D34p”. Besides, in data set [2], the “inhibition … to fibronectin” value is “significant concentration-dependent inhibition”. Further, the “comparison of adhesion inhibition, D25p vs D34p” value in data set [2] (p = 0.0156, Wilcoxon matched-pairs signed rank test) was “significantly stronger than D34p”.

For “QP RGDLRELAARSEAQLQEKGI [D34p, VH-CDR3 derived peptide of D34scFv, 22 amino-acids]”, the “binding to recombinant αvβ6” value in the data set on recombinant αvβ6 was “specific binding to recombinant and cellular αvβ6”. In data set [1], the “binding to αvβ6-expressing cells” value was “αvβ6-specific binding to A375Pβ6 cells”. Moreover, in the data set on A375Ppuro cells, the “binding to αvβ6-negative cells (Figure S1)” value was “no significant binding” and the “binding to αvβ6-negative cells” value was “not A375Ppuro”. Also, the “inhibition of A20FMDV2 binding” value in the data set on cellular αvβ6 was “dose-dependent inhibition”. Besides, the “inhibition … to fibronectin” value in data set [2] is “significant concentration-dependent inhibition”.

In the case of “biotinylated-D25p: biotinylated D25p peptide (EPRGDLRTLAAREKRNFNETLARLQEKGI; also: biotinylated, position not given here)”, in the data set on A375Ppuro cells, the “binding to αvβ6-negative cells (Figure S1)” value is recorded as “no significant binding”. Further, in the data set with αvβ6-negative cells, the “cellular internalisation in αvβ6-negative cells” value is listed as “not in αvβ6-negative cells”. Moreover, in the data set on αvβ6-expressing cells (αvβ6-expressing cells), the nuclear localisation result is on record as “no nuclear localisation” and the “time of efficient internalisation” value lay in the range of 30 to 45 min. In addition, the “cellular internalisation in αvβ6-expressing cells” value in the data set on αvβ6-expressing cells is recorded as “cellular internalisation in αvβ6-expressing cells”.

With “biotinylated-D34p: biotinylated D34p peptide (QPRGDLRELAARSEAQLQEKGI; also: biotinylated, position not given here)”, the “cellular internalisation in αvβ6-negative cells” value in the data set on αvβ6-negative cells is “not in αvβ6-negative cells”. In the data set with αvβ6-expressing cells (αvβ6-expressing cells), the nuclear localisation result is listed as “no nuclear localisation” and the “time of efficient internalisation” value fell in the range of 30 to 45 min. In addition, in the data set on αvβ6-expressing cells, the “cellular internalisation in αvβ6-expressing cells” value was “cellular internalisation in αvβ6-expressing cells”.
